Results as given in patent US9131697B2, “Spirocyclic isoxazolines as antiparasitic agents” (Zoetis Services LLC, priority 2012, dated 2015).

Assays:
[1] = system: Ornithidorus turicata; experiment: Soft Tick (Ornithidorus turicata) Blood Feed Assay; conditions: nymphs fed on treated citrated bovine blood; knockdown and/or death at 24 and 72 hours
Experimental: Soft Tick (Ornithidorus turicata) Blood Feed Assay
Compounds were dissolved in DMSO and aliquots were added to citrated bovine blood in membrane covered wells warmed to 37° C. 5 nymphs were placed on the membrane, allowed to feed to repleation, and were placed in observation wells. […] Endpoint results for subjective visual assessment of organism viability were recorded as LD100 (the lowest dose to cause 100% mortality).

[2] = system: Aedes aeqypti; experiment: Mosquito (Aedes aeqypti) Larval Assay - 1st Instar Larvae; conditions: first instar larvae, 25° C., motility at 24 hours, lowest dose to inhibit motility ≥50% of untreated controls, read-out: Minimum Effective Concentration (MEC)
Experimental: Mosquito (Aedes aeqypti) Larval Assay—1st Instar Larvae
Compounds were dissolved in DMSO and aliquots were spotted to empty wells. First instar larvae and maintenance media were added to the wells to obtain between 8 and 12 larvae per well in the appropriate final assay volume. Larvae were incubated in the treated media at 25° C. for 24 hours. Mosquito larvae motility was measured at 24 hours. Each compound was tested at half-log intervals, and endpoint results were recorded as Minimum Effective Concentration (MEC) in μM. MEC is an objective assessment of organism motility, and is the lowest dose to inhibit motility≧50% of untreated controls.

[3] = system: Ctenocephalides felis; experiment: Flea (Ctenocephalides felis) Membrane Feed Assay-Adult; conditions: adult fleas fed on treated citrated bovine blood, knockdown and/or death at 24 hours, lowest dose causing mortality ≥50%, read-out: Minimum Effective Concentration (MEC)
Experimental: Flea (Ctenocephalides felis) Membrane Feed Assay-Adult
Compounds of the present invention were dissolved in DMSO and aliquots added to citrated bovine blood in membrane covered wells pre-warmed to 37° C. Adult fleas were newly emerged (3-7 days) and unfed. Feeding wells containing approximately 10 adult fleas were placed onto the treated blood wells, and the fleas were allowed to feed on the treated blood for 24 hours. […] Each compound was tested at half-log intervals, and endpoint data was recorded as Minimum Effective Concentration (MEC) in μM. MEC is a subjective visual assessment of organism viability, and is the lowest dose observed to cause mortality≧50%.

Compound: CC(C)C(=O)N1CC2(C1)OCc1nc(C3=NOC(c4cc(Cl)c(Cl)c(Cl)c4)(C(F)(F)F)C3)ccc12 (stereo not drawn) [Example 12, 2-methyl-1-(2′-(5-(3,4,5-trichlorophenyl)-5-(trifluoromethyl)-4,5-dihydroisoxazol-3-yl)-7′H-spiro[azetidine-3,5′-furo[3,4-b]pyridine]-1-yl)propan-1-one]
- LD100 (the lowest dose to cause 100% mortality) [1]: 0.3 µg/mL
- minimal effective concentration [2]: 0.1 µM

Compound: CS(=O)(=O)CC(=O)N1CC2(C1)OCc1nc(C3=NOC(c4cc(Cl)c(Cl)c(Cl)c4)(C(F)(F)F)C3)ccc12 (stereo not drawn) [Example 9, 2-(methylsulfonyl)-1-(2′-(5-(3,4,5-trichlorophenyl)-5-(trifluoromethyl)-4,5-dihydroisoxazol-3-yl)-7′H-spiro[azetidine-3,5′-furo[3,4-b]pyridine]-1-yl)ethanone]
- minimal effective concentration [2]: 0.3 µM

Compound: CC(C)C(=O)N1CC2(C1)OCc1cc(C3=NOC(c4cc(Cl)cc(Cl)c4)(C(F)(F)F)C3)ncc12 (stereo not drawn) [Example 18, 1-(6′-(5-(3,5-dichlorophenyl)-5-(trifluoromethyl)-4,5-dihydroisoxazol-3-yl)-1′H-spiro[azetidine-3,3′-furo[3,4-c]pyridine]-1-yl)-2-methylpropan-1-one]
- minimal effective concentration [3]: 0.3 µM
- LD100 (the lowest dose to cause 100% mortality) [1]: 0.03 µg/mL
- minimal effective concentration [2]: 0.01 µM

Compound: CS(=O)(=O)CC(=O)N1CC2(C1)OCc1cc(C3=NOC(c4cc(Cl)c(Cl)c(Cl)c4)(C(F)(F)F)C3)ncc12 (stereo not drawn) [Example 14, 2-(methylsulfonyl)-1-(6′-(5-(3,4,5-trichlorophenyl)-5-(trifluoromethyl)-4,5-dihydroisoxazol-3-yl)-1′H-spiro[azetidine-3,3′-furo[3,4-c]pyridine]-1-yl)ethanone]
- minimal effective concentration [3]: 1 µM
- LD100 (the lowest dose to cause 100% mortality) [1]: 0.3 µg/mL
- minimal effective concentration [2]: 0.01 µM

Compound: CS(=O)(=O)CC(=O)N1CC2(C1)OCc1nc(C3=NOC(c4cc(Cl)cc(Cl)c4)(C(F)(F)F)C3)ccc12 (stereo not drawn) [Example 8, 1-(2′-(5-(3,5-dichlorophenyl)-5-(trifluoromethyl)-4,5-dihydroisoxazol-3-yl)-7′H-spiro[azetidine-3,5′-furo[3,4-b]pyridine]-1-yl)-2-(methylsulfonyl)ethanone]
- minimal effective concentration [2]: 0.3 µM

Compound: CS(=O)(=O)CC(=O)N1CC2(C1)OCc1cc(C3=NOC(c4cc(Cl)c(Cl)c(Cl)c4)(C(F)(F)F)C3)cnc12 (stereo not drawn) [Example 3, 1-[(methylsulfonyl)acetyl]-3′-[5-(3,4,5-trichlorophenyl)-5-(trifluoromethyl)-4,5-dihydroisoxazol-3-yl]-5′H-spiro[azetidin-3,7′-furo[3,4,b]pyridine]]
- minimal effective concentration [3]: 1 µM
- LD100 (the lowest dose to cause 100% mortality) [1]: 0.3 µg/mL
- minimal effective concentration [2]: 0.03 µM

Compound: CS(=O)(=O)CC(=O)N1CC2(C1)OCc1cc(C3=NOC(c4cc(Cl)c(F)c(Cl)c4)(C(F)(F)F)C3)cnc12 (stereo not drawn) [Example 2, 3′-[5-(3,5-dichloro-4-fluorophenyl)-5-(trifluoromethyl)-4,5-dihydroisoxazol-3-yl]-1-[(methylsulfonyl)acetyl]-5′H-spiro[azetidin-3,7-furo[3,4,b]pyridine]]
- minimal effective concentration [3]: 1 µM
- LD100 (the lowest dose to cause 100% mortality) [1]: 0.3 µg/mL
- minimal effective concentration [2]: 0.03 µM

Compound: CS(=O)(=O)CC(=O)N1CC2(C1)OCc1cc(C3=NOC(c4cc(Cl)cc(Cl)c4)(C(F)(F)F)C3)ncc12 (stereo not drawn) [Example 15, 1-(6′-(5-(3,5-dichlorophenyl)-5-(trifluoromethyl)-4,5-dihydroisoxazol-3-yl)-1′H-spiro[azetidine-3,3′-furo[3,4-c]pyridine]-1-yl)-2-(methylsulfonyl)ethanone]
- minimal effective concentration [3]: 3 µM
- minimal effective concentration [2]: 0.03 µM

Compound: CS(=O)(=O)CC(=O)N1CC2(C1)OCc1cc(C3=NOC(c4cc(Cl)cc(Cl)c4)(C(F)(F)F)C3)cnc12 (stereo not drawn) [Example 1, 3′-[5-(3,5-dichlorophenyl)-5-(trifluoromethyl)-4,5-dihydroisoxazol-3-yl]-1-[(methylsulfonyl)acetyl]-5′H-spiro[azetidin-3,7′-furo[3,4,b]pyridine]]
- minimal effective concentration [3]: 3 µM
- LD100 (the lowest dose to cause 100% mortality) [1]: 0.1 µg/mL
- minimal effective concentration [2]: 0.1 µM

Compound: CC(C)C(=O)N1CC2(C1)OCc1cc(C3=NOC(c4cc(Cl)c(Cl)c(Cl)c4)(C(F)(F)F)C3)cnc12 (stereo not drawn) [Example 6, 1-isobutyryl-3′-[5-(3,4,5-trichlorophenyl)-5-(trifluoromethyl)-4,5-dihydroisoxazol-3-yl]-5′H-spiro[azetidin-3,7′-furo[3,4,b]pyridine]]
- minimal effective concentration [3]: 1 µM
- LD100 (the lowest dose to cause 100% mortality) [1]: 0.03 µg/mL
- minimal effective concentration [2]: 0.01 µM

Compound: CC(C)C(=O)N1CC2(C1)OCc1cc(C3=NOC(c4cc(Cl)c(F)c(Cl)c4)(C(F)(F)F)C3)ncc12 (stereo not drawn) [Example 16, 1-(6′-(5-(3,5-dichloro-4-fluorophenyl)-5-(trifluoromethyl)-4,5-dihydroisoxazol-3-yl)-1′H-spiro[azetidine-3,3′-furo[3,4-c]pyridine]-1-yl)-2-methylpropan-1-one]
- minimal effective concentration [3]: 0.1 µM
- LD100 (the lowest dose to cause 100% mortality) [1]: 0.03 µg/mL
- minimal effective concentration [2]: 0.001 µM

Compound: CC(C)C(=O)N1CC2(C1)OCc1nc(C3=NOC(c4cc(Cl)c(F)c(Cl)c4)(C(F)(F)F)C3)ccc12 (stereo not drawn) [Example 10, 1-(2′-(5-(3,5-dichloro-4-fluorophenyl)-5-(trifluoromethyl)-4,5-dihydroisoxazol-3-yl)-7′H-spiro[azetidine-3,5′-furo[3,4-b]pyridine]-1-yl)-2-methylpropan-1-one]
- minimal effective concentration [3]: 3 µM
- LD100 (the lowest dose to cause 100% mortality) [1]: 0.1 µg/mL
- minimal effective concentration [2]: 0.03 µM

Compound: CC(C)C(=O)N1CC2(C1)OCc1cc(C3=NOC(c4cc(Cl)c(F)c(Cl)c4)(C(F)(F)F)C3)cnc12 (stereo not drawn) [Example 4, 3′-[5-(3,5-dichloro-4-fluorophenyl)-5-(trifluoromethyl)-4,5-dihydroisoxazol-3-yl]-1-isobutyryl-5′ H-spiro[azetidin-3,7′-furo[3,4,b]pyridine]]
- minimal effective concentration [3]: 0.1 µM
- LD100 (the lowest dose to cause 100% mortality) [1]: 0.03 µg/mL
- minimal effective concentration [2]: 0.01 µM

Compound: CS(=O)(=O)CC(=O)N1CC2(C1)OCc1nc(C3=NOC(c4cc(Cl)c(F)c(Cl)c4)(C(F)(F)F)C3)ccc12 (stereo not drawn) [Example 7, 1-(2′-(5-(3,5-dichloro-4-fluorophenyl)-5-(trifluoromethyl)-4,5-dihydroisoxazol-3-yl)-7′H-spiro[azetidine-3,5′-furo[3,4-b]pyridine]-1-yl)-2-(methylsulfonyl)ethanone]
- minimal effective concentration [2]: 0.3 µM

Compound: CS(=O)(=O)CC(=O)N1CC2(C1)OCc1cc(C3=NOC(c4cc(Cl)c(F)c(Cl)c4)(C(F)(F)F)C3)ncc12 (stereo not drawn) [Example 13, 1-(6′-(5-(3,5-dichloro-4-fluorophenyl)-5-(trifluoromethyl)-4,5-di hydroisoxazol-3-yl)-1′H-spiro[azetidine-3,3′-furo[3,4-c]pyridine]-1-yl)-2-(methylsulfonyl)ethanone]
- minimal effective concentration [3]: 1 µM
- LD100 (the lowest dose to cause 100% mortality) [1]: 0.1 µg/mL
- minimal effective concentration [2]: 0.01 µM

Compound: CC(C)C(=O)N1CC2(C1)OCc1cc(C3=NOC(c4cc(Cl)cc(Cl)c4)(C(F)(F)F)C3)cnc12 (stereo not drawn) [Example 5, 3′-[5-(3,5-dichlorophenyl)-5-(trifluoromethyl)-4,5-dihydroisoxazol-3-yl]-1-isobutyryl-5′H-spiro[azetidin-3,7′-furo[3,4,b]pyridine]]
- minimal effective concentration [3]: 1 µM
- LD100 (the lowest dose to cause 100% mortality) [1]: 0.03 µg/mL
- minimal effective concentration [2]: 0.03 µM

Compound: CC(C)C(=O)N1CC2(C1)OCc1nc(C3=NOC(c4cc(Cl)cc(Cl)c4)(C(F)(F)F)C3)ccc12 (stereo not drawn) [Example 11, 1-(2′-(5-(3,5-dichlorophenyl)-5-(trifluoromethyl)-4,5-dihydroisoxazol-3-yl)-7′H-spiro[azetidine-3,5′-furo[3,4-b]pyridine]-1-yl)-2-methylpropan-1-one]
- LD100 (the lowest dose to cause 100% mortality) [1]: 0.3 µg/mL
- minimal effective concentration [2]: 0.3 µM

Compound: CC(C)C(=O)N1CC2(C1)OCc1cc(C3=NOC(c4cc(Cl)c(Cl)c(Cl)c4)(C(F)(F)F)C3)ncc12 (stereo not drawn) [Example 17, 2-methyl-1-(6′-(5-(3,4,5-trichlorophenyl)-5-(trifluoromethyl)-4,5-dihydroisoxazol-3-yl)-1′H-spiro[azetidine-3,3′-furo[3,4-c]pyridine]-1-yl)propan-1-one]
- minimal effective concentration [3]: 0.1 µM
- LD100 (the lowest dose to cause 100% mortality) [1]: 0.03 µg/mL
- minimal effective concentration [2]: 0.01 µM
